Columns and labels:
[1] = system: ascites hepatoma Yoshida AH-130 cells inoculated into male Wistar rats; experiment: AH-130 Yoshida hepatoma cancer cachexia rat model; conditions: for survival / mortality (Kaplan Meier): low dose 0.2 mg/kg/day
Excerpt: Use of an ACE inhibitor blocks all activation of both the AT1 and AT2 receptors, therefore inhibiting the beneficial effects of angiotensin II mediated activation of the AT2 receptor.
(§1) The ascites hepatoma Yoshida AH-130 cells (10^8) were inoculated into approx. 200 g male Wistar rats. Alternatively animals received saline injection only (sham). The animals were housed in groups of three. The day after inoculation animals were randomized into various groups as described in the methods. […] The primary endpoints of the study included survival and quality of life. Secondary endpoints included body weight and body composition as well as organ weight, which were assessed at the end of the study (or after death).
as §1, with “randomized.” for “randomized into various groups as described in the methods.”

AT1 receptor = conditions: read-out: Ki for AT1 receptor; cited from earlier work
[2] = 0.2 mg/kg/d, vs placebo, listed as Compound-21
[3] = 0.2 mg/kg/d, vs placebo, listed as compound-21
[4] = high dose 1.0 mg/kg/d, vs placebo, listed as Compound-21, 1 mg/kg/day
[5] = high dose 1.0 mg/kg/d, vs placebo, listed as compound-21, 1 mg/kg/day

## CCCCOC(=O)NS(=O)(=O)c1sc(CC(C)C)cc1-c1ccc(Cn2ccnc2)cc1 [Compound 21]
[1]; [2]
  change in body weight during the experiment: significantly reduced loss of body weight
  food intake on day 11 after tumor inoculation: significantly increased food intake
  heart weight at the end of the study: significantly increased heart weight
  spontaneous locomotor activity on day 11 after tumor inoculation: significantly increased activity
  weight of brown adipose tissue (BAT) at the end of the study: significantly increased BAT weight
  weight of the fast fiber type EDL at the end of the study: significantly increased EDL weight
  weight of the mixed fiber type gastrocnemius at the end of the study: significantly increased gastrocnemius weight
  weight of the slow fiber type soleus at the end of the study: significantly increased soleus weight
  weight of white adipose tissue (WAT) epididymal fat at the end of the study: significantly increased WAT weight
[1]; [3]
  change in body weight during the experiment: attenuated
  food intake on day 11 after tumor inoculation: significantly improved
  heart weight at the end of the study: improved
  spontaneous locomotor activity on day 11 after tumor inoculation: significantly improved
  weight of brown adipose tissue (BAT) at the end of the study: improved
  weight of the fast fiber type EDL at the end of the study: higher compared to placebo
  weight of the mixed fiber type gastrocnemius at the end of the study: higher compared to placebo
  weight of the slow fiber type soleus at the end of the study: higher compared to placebo
  weight of white adipose tissue (WAT) epididymal fat at the end of the study: improved
[1]; [4]
  weight of the fast fiber type EDL at the end of the study: also improved EDL weight
  weight of the slow fiber type soleus at the end of the study: also improved soleus weight
[1]; [5]
  weight of the fast fiber type EDL at the end of the study: also improved
  weight of the slow fiber type soleus at the end of the study: also improved
[1]; higher dose 1.0 mg/kg/d
  toxicity at higher dose: toxic effects
[1]; higher dose 1.0 mg/kg/d, vs placebo
  survival (Kaplan Meier): not effective
[1]; vs placebo, listed as Compound-21, 0.2 mg/kg/day
  survival / mortality (Kaplan Meier): significantly reduced mortality
[1]; vs placebo, listed as compound-21, 0.2 mg/kg/day
  survival / mortality (Kaplan Meier): significantly improved survival
AT1 receptor
  Ki: > 10 µM

## CCOC(=O)[C@H](CCc1ccccc1)N[C@@H](C)C(=O)N1C(=O)N(C)C[C@H]1C(=O)O [imidapril, reference compound]
[1]; imidapril
  quality of life (activity and food intake): did not improve quality of life
[1]; imidapril, compared to untreated tumor-bearing animals
  hazard ratio and survival: worse hazard ratio and survival
[1]; imidapril, vs untreated tumor-bearing animals
  body weight loss: dose-dependent reduction of body weight loss

Reference: patent US10016397B2, “Selective AT2 receptor agonists for use in treatment of cachexia” (Charité-Universitaetsmedizin Berlin, priority 2013, dated 2018)
